Source: patent US5071988A, “Substituted benzoylbenzene-, biphenyl- and 2-oxazole-alkanoic acid derivatives” (American Home Products Corporation, priority 1991, dated 1991)
Like-named read-outs stand apart in the source and are kept apart here.

Tests used:
TxB2 = assay: reverse passive Arthus pleurisy assay, TxB2; assay type: in vivo, rat (male Lewis); details: for ED50 TxB2 / ED50: 5 min; for ED50: Rattus norvegicus, po, read-out: ED50 TxB2
Experimental: (§1) The compounds of the invention are further tested in the reverse passive Arthus pleurisy assay to evaluate their effectiveness in inflammatory mediator release and/or the fluid and cellular phases of an inflammatory response.
(§2) A reverse passive Arthus reaction is induced in the pleural cavity of male Lewis rats (150-200 g; fasted overnight prior to use) by the intravenous administration of bovine serum albumin (BSA; 4 mg/0.2 ml) followed by 30 minutes later by the injection of rabbit anti-BSA (1 mg/0.2 ml; lyophilized IgG fraction; Organon Teknika, West Chester, Pa.) into the right pleural space under halothane anesthesia. Drugs or vehicle (0.5% Tween-80) control are administered orally in a volume of 1 ml/100 g body weight at 1 hour prior to the anti-BSA. Animals are sacrificed at either the time of peak eicosanoid production (i.e. 5 minutes after anti-BSA for immunoreactive TxB2 10 minutes for immunoreactive LTB4, 20 minutes for immunoreactive LTC4) or at the time of peak neutrophil infiltration (4 hours after anti-BSA) by CO2 inhalation. The pleural cavity is then exposed, the fluid exudate removed by gentle vacuum aspiration and the volume of exudate is recorded. For the determination of cellular infiltration, the pleural cavity is rinsed with 3 ml of 0.1% EDTA in sterile saline, and the recovered wash is pooled with the exudate. Cell number is determined on a model ZBI Coulter counter. For determination of eicosanoid production, undiluted pleural exudate is microfuged and the supernatant is extracted with ethanol (8-10 times volume). Extracts are either stored at -20° C., or are evaporated to dryness under a stream of N2 and reconstituted in radioimmunoassay (RIA) buffer.
(§3) Eicosanoids are quantitated by RIA according to the procedure specified by the RIA kit manufacturer (Advanced Magnetics, Cambridge, Mass.). Briefly, 100 μl of ^3 H-labeled eicosanoid and 100 μl of specific antibody are sequentially added to 100 μl of extracted pleural exudate in BGG -phosphate buffer which contains 0.01M phosphate, 0.1% bovine gamma globulin and 0.1% sodium azide at pH 7.0. Antibody-bound eicosanoid is separated from unbound eicosanoid by the addition of 750 μl of dextran (0.4%)-coated charcoal (0.4% Norit A) containing 0.1% sodium azide. The mixture is centrifuged at 2000 RPM at 5° C. for 15 minutes to pellet the charcoal and adsorbed unbound eicosanoid. Antibody-bound labeled eicosanoid is quantitated by counting in a liquid scintillation counter, and is correlated to concentration by a standard curve.
(§4) Inflammatory cells are expressed as 10^6 cells/ml, pleural exudate is expressed as ml of fluid, and the amount of eicosanoids in the pleural cavity is expressed as ng/ml of exudate. Mean±S.E.M. is determined for each group. Percent inhibition (% I) of cell number, exudate volume and eicosanoid production is calculated for vehicle-treated control groups, and the responses in drug-treated rats are then expressed as the mean % I of the control. […] Exp. Ther., 96, 99-113 (1949).

LTB4 = assay: reverse passive Arthus pleurisy assay, LTB4; assay type: in vivo, rat (male Lewis); details: for ED50: Rattus norvegicus
Experimental: as §1, §2, §3, §4

Cellular Influx = assay: reverse passive Arthus pleurisy assay, cellular influx; assay type: in vivo, rat (male Lewis); details: Rattus norvegicus, po, 4 h, 1 hour prior to anti-BSA; standard drugs
Experimental: as §1, §2, §4

Fluid Exudation = assay: reverse passive Arthus pleurisy assay, fluid exudation; assay type: in vivo, rat (male Lewis); details: 1 hour prior to anti-BSA, standard drugs; for ED30 Fluid Exudation: p.o.; for ED30: Rattus norvegicus, po
Experimental: as §1, §2, §4

[1] = test system: LTB4 synthesis by rat glycogen-elicited polymorphonuclear leukocytes (PMN); assay: inhibition of LTB4 synthesis by rat glycogen-elicited polymorphonuclear leukocytes (PMN); assay type: cell-based, rat (female Wistar); details: Leukocyte
Excerpt: This is especially true with respect to 5,12-diHETE, which is also denoted as LTB4 [see Ford-Hitchinson, J. Roy. […] Med., 74, 831 (1981)]. Compounds which inhibit the PLA2 -mediated release of arachidonic acid thereby effectively prevent the oxidation of arachidonic acid to the various leukotriene products via the lipoxygenase cascade. Accordingly, the specificity of action of PLA2 inhibitors can be determined by the activity of test compounds in this assay, which measures the ability of compounds to inhibit the synthesis of LTB4 by rat glycogen-elicited polymorphonuclear leukocytes (PMN) in the presence of exogenous substrate.
The assay is carried out as follows:
(§5) Rat polymorphonuclear leukocytes (PMNs) are obtained from female Wistar rats (150-200 g) which receive an injection of 6% glycogen (10 ml i.p.). Rats are sacrificed 18-24 hours post injection by CO2 asphyxiation and the elicited cells are harvested by peritoneal lavage using physiological saline (0.9% NaCl). The exudate is centrifuged at 400 xg for 10 minutes. The supernatant fluid is discarded and the cell pellet is resuspended to a concentration of 2.0×10^7 cells/mL in HBSS containing Ca^++ and Mg^++ and 10 μM L-cysteine.
(§6) To 1 mL aliquots of cell suspension, test drugs or vehicle are added, then preincubated at 37° C. for 10 minutes. A23187 (1 μM), [^3 H]-AA (3.0 μCi/mL) and unlabeled AA (1 μM) are then added and the samples are further incubated for 10 minutes. The reaction is terminated by centrifugation and pelleting cells. Supernatants are then analyzed by HPLC analysis on a 15 cm×4.6 mm ID supelcosil LC-18 (Supelco)(3M) column, using a two solvent system at a flow rate of 1.4 mL total flow as follows:
Gradient: (system is equilibrated with Solvent A)
Percent solvent changes are accomplished in a linear fashion.
Injections: 140 μL of each supernatant is injected directly onto column and ^3 H arachidonic acid metabolites are monitored using an on-line radioactivity detector (Ramona, IN/US, Fairfield, N.J.).
Standards: 10^4 -2.0×10^4 dpm of eicosanoids of interest are injected in 90 μL EtOH cocktail.
Results are expressed as percent inhibition at a given compound dose or as an IC50 value.

[2] = test system: PGE2 synthesis by rat glycogen-elicited polymorphonuclear leukocytes (cyclooxygenase); assay: inhibition of PGE2 (cyclooxygenase product) synthesis by rat glycogen-elicited polymorphonuclear leukocytes; assay type: cell-based, rat (female Wistar); details: Leukocyte; for inhibition at 0.5 µM: read-out: % Inhibition (PGE2 synthesis)
Experimental: as §5, §6
In this assay, the procedure of Example 14 is carried out as described. However, in order to determine cyclooxygenase activity, the samples are cochromatographed with authentic reference [^3 H]-PGE2.

Human Synovial PLA2 = molecular target: T1, Human Synovial PLA2 (Homo sapiens, UniProt P14555); assay: in vitro isolated phospholipase A2 assay, human synovial fluid PLA2; assay type: biochemical; details: read-out: % Inhibition at 10 μM HSF
T1 construct: Purified human synovial fluid; from tissue; host or cells: human synovial fluid (purified)
T1 sequence (P14555 21-144): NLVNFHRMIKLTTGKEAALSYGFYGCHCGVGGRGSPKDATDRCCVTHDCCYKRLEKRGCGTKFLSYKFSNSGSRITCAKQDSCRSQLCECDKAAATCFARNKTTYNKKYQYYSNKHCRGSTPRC
Experimental: The compounds of the invention are tested in an in vitro isolated phospholipase A2 assay to determine the ability of the test compounds to inhibit the release of arachidonic acid from an arachidonic acid-containing substrate by the action of phospholipase A2 enzyme from human and non-human sources.
Into a 15 mL polypropylene tube are added the following:
^ 6 Two human PLA2 enzymes are used:
b) Purified human synovial fluid.
Incubate the 100 μL reaction mixture for 10 minutes at 37° C. in a shaking water bath. The reaction is terminated by the addition of 2 mL tetrahydrofuran, followed by vortexing. NH2 columns (100 μg/mL--Analytichem International) are conditioned with 0.5 mL tetrahydrofuran followed by 0.5 mL tetrahydrofuran/water (2 mL:0.1 mL, v/v).
The sample is loaded onto the columns and slowly drawn through them. The hydrolyzed arachidonic acid retained in the columns is eluted therefrom with 1 mL tetrahydrofuran/glacial acetic acid (2%). The arachidonic acid is transferred to scintillation vials and quantitated by β-counting analysis. A "total counts" sample is prepared by pipetting 25 μL ^3 H-arachidonate E. coli directly into a scintillation vial to which is added 1 mL tetrahydrofuran. 10 mL aquasol (scintillation cocktail) is added to all samples.

[3] = p.o., 1 hour prior to anti-BSA, standard drugs
[4] = at 0.5 μM, negative values denote potentiation of cyclooxygenase
[5] = at 10 μM, human synovial fluid, negative values denote potentiation of HSF
[6] = negative values denote potentiation of cyclooxygenase

With CN=C1CCN(c2cccc(C(F)(F)F)c2)N1 [BW540C] the “ED50 TxB2” value (TxB2; [3]) was 19 mg/kg p.o and the “ED50 LTB4” value (LTB4; [3]) was 30 mg/kg p.o.
C[C@@H]1C[C@H]2[C@@H]3CCC4=CC(=O)C=C[C@]4(C)[C@@]3(F)[C@@H](O)C[C@]2(C)[C@@]1(O)C(=O)CO [Dexamethasone] was tested, and the ED30 (Cellular Influx) was 0.13 mg/kg and the “ED30 Fluid Exudation” value (Fluid Exudation) was 0.05 mg/kg p.o.
With O=C(O)Cc1ccccc1Nc1c(Cl)cccc1Cl [Diclofenac] the ED50 (TxB2) was 6 mg/kg.
CC(=O)c1ccc(-c2ccc(OCc3ccc4ccccc4n3)cc2)c([N+](=O)[O-])c1 [Example 1, 1-[2-Nitro-4'-(2-quinolinylmethoxy)-[1,1'-biphenyl]4-yl]ethanone] showed an inhibition at 0.5 µM [1] of 95% and an inhibition at 0.5 µM [2, 4] of -13%.
Molecule O=C(O)Cc1ccc(-c2ccc(OCc3ccc4ccccc4n3)cc2)c(F)c1 [Example 2, 2-Fluoro-4'-(2-quinolinylmethyoxy)-[1,1'-biphenyl]-4-acetic acid] has an inhibition at 0.5 µM [1] of 91% and an inhibition at 0.5 µM [2] of -22%.
Molecule O=C(O)Cc1cccc(C(=O)c2ccc(OCc3ccc4ccccc4n3)cc2)c1 [Example 3, 3-[4-(2-Quinolinylmethoxy)benzoyl]benzene acetic acid] has an inhibition at 0.5 µM [1] of 38%, an inhibition at 10 µM [1] of 87% and an inhibition at 10 µM (Human Synovial PLA2; [5]) of 25.5%. The inhibition at 0.5 µM [2, 4] was -8% and the inhibition at 10 µM [2, 6] was 8%.
O=C(O)Cc1cccc(C(=O)c2ccc(OCc3ccc4ccccc4c3)cc2)c1 [Example 4, 3-[4-(2-Naphthalenylmethoxy)benzoyl]benzene acetic acid] gave an inhibition at 10 µM [1] of 8%, an inhibition at 10 µM (Human Synovial PLA2; [5]) of 15.1% and an inhibition at 10 µM [2, 6] of -31%.
In the case of O=C(O)CCc1nc(-c2ccc(OCc3ccc4ccccc4c3)cc2)c(-c2ccccc2)o1 [Example 6, 4-[4-[2-Naphthalenylmethoxy]phenyl]-5-phenyl-2-oxazole propanoic acid], the inhibition at 0.5 µM [1] is reported as 81%, the inhibition at 10 µM [1] is reported as 95% and the inhibition at 10 µM [2, 6] is reported as -191%. For the same molecule, the inhibition at 0.5 µM [2] was -12%.
For COC(=O)CCc1nc(-c2ccc(OCc3ccc4ccccc4c3)cc2)c(-c2ccccc2)o1 [Example 6A, 4-[4-[2-Naphthalenylmethoxy]phenyl]-5-phenyl-2-oxazole propanoic acid methylester], the inhibition at 0.5 µM [1] was 63%, the inhibition at 10 µM [1] was 94% and the inhibition at 0.5 µM [2, 4] was -29%. It also gave an inhibition at 10 µM [2, 6] of -79%.
For Cn1c(COc2ccc(-c3nc(CCC(=O)O)oc3-c3ccccc3)cc2)nc2ccccc21 [Example 7, 4-[4-[(1-Methyl-1H-benzimidazol-2-yl)methoxy]phenyl]-5-phenyl-2-oxazole propanoic acid], the inhibition at 10 µM [1] was 85%.
With O=C(O)Cc1ccc(-c2ccc(OCc3ccc4ccccc4n3)cc2)c(F)c1 [Example 9, 2-Fluoro-4'-(2-quinolinylmethoxy)[1,1'-biphenyl]-4-acetic acid, 2-amino-2-hydroxymethyl-1,3-propane diol] the ED50 (LTB4; reverse passive Arthus pleurisy, oral, read-out: ED50 (LTB4 Synthesis)) was 0.8 mg/kg.
COc1ccc2cc([C@H](C)C(=O)O)ccc2c1 [Naproxen] was tested, and the “ED50 TxB2” value (TxB2; [3]) was 0.24 mg/kg p.o, the “% Inh LTB4” value (LTB4; 4 mg/kg p.o.) was 0% and the “ED30 Fluid Exudation” value (Fluid Exudation) was 3.9 mg/kg p.o.
In the case of O=C1CCN(c2ccccc2)N1 [Phenidone], the ED50 (TxB2; [3]) is reported as 69 mg/kg, the ED30 (Cellular Influx) is reported as 23 mg/kg and the ED50 (LTB4; po, 1 hour prior to anti-BSA, standard drugs, read-out: ED50 LTB4) is reported as 10 mg/kg. The ED30 (Fluid Exudation) was 21 mg/kg.
With CN1C(C(=O)Nc2ccccn2)=C(O)c2ccccc2S1(=O)=O [Piroxicam] the ED30 (Cellular Influx) was 3 mg/kg and the ED30 (Fluid Exudation) was 1 mg/kg.
For C[C@H](C(=O)O)c1ccc2cc(OCc3ccc4ccccc4n3)ccc2c1.NC(CO)(CO)CO [Wy-50,295-A], the “% Inh TxB2” value (TxB2; 75 mg/kg p.o.) was 0%.
With CC(C(=O)O)c1cccc(C(=O)c2ccccc2)c1 (stereo not drawn) [ketoprofen] the ED50 (TxB2) was 0.18 mg/kg and the inhibition at 10 µM (Human Synovial PLA2) was -16.9%.
